Reference: patent publication US7402548B2, “Benzoxazole compounds, process for producing the same and herbicides” (Kyoyu Agri Co., Ltd., priority 2000, dated 2008)

Tests used:
green foxtail [1] = assay: Soil treatment test for upland field; assay type: in vivo, Setaria viridis; set-up: key: 0 = normal development, 5 = all killed; conditions: 500 g/ha, 3 weeks, glass house 25° C.
In short: (§1)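 Read-out is a six-rank visual damage score, from 0 for normal development to 5 for all plants killed, relative to untreated pots. It is taken 3 weeks after the compound, as wettable powder at 500 g/ha, is sprayed onto freshly seeded alluvial soil.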

barnyard grass [2] = assay: Herbicidal test for paddy field; assay type: in vivo, Eschinochloa crusgalli; conditions: 500 g/ha, dropwise addition to paddy water at 1.5 leaf stage of barnyard grass; glass house 25° C., 3 weeks; rank 0-5 vs non-treated district
In short: (§2)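 Wettable-powder formulations in water with 0.05% surfactant were dripped onto flooded (3 cm) Ube alluvial-soil pots at 500 g/ha, applied at barnyard grass 1.5-leaf stage. Plants were kept in a glasshouse at 25° C. for 3 weeks. Damage was scored 0 (normal) to 5 (all killed) versus untreated plants.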

common lambsquarters [3] = assay: Foliar spread test for upland field; assay type: in vivo, Chenopodium album; set-up: key: 0 = normal development, 5 = all killed (6 ranks vs. untreated); conditions: foliar spray, 500 ppm, 3 weeks, glass house 25° C.
In short: (§3)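 Plants grown about 2 weeks at 25 °C in volcanic ash soil were sprayed with wettable powder diluted to 500 ppm in water with 0.5% surfactant. After 3 weeks at 25 °C, damage was scored 0 (normal) to 5 (all killed) against untreated plants.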

livid amaranth [4] = assay: Foliar spread test for upland field; assay type: in vivo, Amaranthus lividus; set-up: key: 0 = normal development, 5 = all killed (6 ranks vs. untreated); conditions: foliar spray, 500 ppm, 3 weeks, glass house 25° C.
In short: as §3

livid amaranth [5] = assay: Soil treatment test for upland field; assay type: in vivo, Amaranthus lividus; set-up: key: 0 = normal development, 5 = all killed; conditions: 500 g/ha, 3 weeks, glass house 25° C.
In short: as §1

common lambsquarters [6] = assay: Soil treatment test for upland field; assay type: in vivo, Chenopodium album; set-up: key: 0 = normal development, 5 = all killed; conditions: 500 g/ha, 3 weeks, glass house 25° C.
In short: as §1

corn [7] = assay: Soil treatment test for upland field; assay type: in vivo; set-up: key: 0 = normal development, 5 = all killed; conditions: 500 g/ha, 3 weeks, glass house 25° C.
In short: as §1

wheat [8] = assay: Soil treatment test for upland field; assay type: in vivo; set-up: key: 0 = normal development, 5 = all killed; conditions: 500 g/ha, 3 weeks, glass house 25° C.
In short: as §1

Large crabgrass [9] = assay: Soil treatment test for upland field; assay type: in vivo, Digitaria adscendens; set-up: key: 0 = normal development, 5 = all killed; conditions: 500 g/ha, 3 weeks, glass house 25° C.
In short: as §1

wheat [10] = assay: Foliar spread test for upland field; assay type: in vivo; set-up: key: 0 = normal development, 5 = all killed (6 ranks vs. untreated); conditions: foliar spray, 500 ppm, 3 weeks, glass house 25° C.
In short: as §3

annual bluegrass [11] = assay: Soil treatment test for upland field; assay type: in vivo, Poa annua; set-up: key: 0 = normal development, 5 = all killed; conditions: 500 g/ha, 3 weeks, glass house 25° C.
In short: as §1

barnyard grass [12] = assay: Soil treatment test for upland field; assay type: in vivo, Eschinochloa crusgalli; set-up: key: 0 = normal development, 5 = all killed; conditions: 500 g/ha, 3 weeks, glass house 25° C.
In short: as §1

monochoria = assay: Herbicidal test for paddy field; assay type: in vivo, Monochoria vaginalis; conditions: 500 g/ha, dropwise addition to paddy water at 1.5 leaf stage of barnyard grass; glass house 25° C., 3 weeks; rank 0-5 vs non-treated district
Experimental: (§4) Wagner pots, each having an area of 1/5000 are, were packed with Ube soil (alluvial soil) and planted with seeds or tubers of young rice plant, barnyard grass, bulrush, Cyperus serotinus Rottb., arrowhead and monochoria. Then, the pots were filled with water to a depth of 3 cm.
(§5) Each wettable powder of the desired Compounds (I) shown in Tables 1 to 21, 24, 25, 28 and 29 prepared in accordance with Example 2 was diluted with water containing a surfactant (0.05%) and subjected to dropwise addition treatment by using pipet so that an effective concentration of the compound (I) in each herbicide became 500 g/ha at 1.5 leaf stage of barnyard grass.
(§6) These plants were controlled in a glass house at an average temperature of 25° C. for 3 weeks, and then herbicidal effects thereof were investigated.
(§7) The herbicidal effects are evaluated according to the following 6 ranks as compared with non-treated district. (0: normal development, 1: Less damaged, 2: Slightly damaged, 3: Moderately damaged, 4: Severely damaged, 5: All killed). Incidentally, “-” in the column means not investigated.

soybean [13] = assay: Soil treatment test for upland field; assay type: in vivo; set-up: key: 0 = normal development, 5 = all killed; conditions: 500 g/ha, 3 weeks, glass house 25° C.
In short: as §1

bulrush = assay: Herbicidal test for paddy field; assay type: in vivo, Scrips juncoides; conditions: 500 g/ha, dropwise addition to paddy water at 1.5 leaf stage of barnyard grass; glass house 25° C., 3 weeks; rank 0-5 vs non-treated district
In short: as §2

Cyperus serotinus Rottb. = assay: Herbicidal test for paddy field; assay type: in vivo; conditions: 500 g/ha, dropwise addition to paddy water at 1.5 leaf stage of barnyard grass; glass house 25° C., 3 weeks; rank 0-5 vs non-treated district
Experimental: as §4, §5, §6, §7

barnyardgrjass = assay: Foliar spread test for upland field; assay type: in vivo, Eschinochloa crusgalli; set-up: key: 0 = normal development, 5 = all killed (6 ranks vs. untreated); conditions: foliar spray, 500 ppm, 3 weeks, glass house 25° C.
In short: as §3

blackgrass [14] = assay: Soil treatment test for upland field; assay type: in vivo, Alopecurus aegualis; set-up: key: 0 = normal development, 5 = all killed; conditions: 500 g/ha, 3 weeks, glass house 25° C.
In short: as §1

annual bluegrass [15] = assay: Foliar spread test for upland field; assay type: in vivo, Poa annua; set-up: key: 0 = normal development, 5 = all killed (6 ranks vs. untreated); conditions: foliar spray, 500 ppm, 3 weeks, glass house 25° C.
In short: as §3

sugar beat [16] = assay: Soil treatment test for upland field; assay type: in vivo; set-up: key: 0 = normal development, 5 = all killed; conditions: 500 g/ha, 3 weeks, glass house 25° C.
In short: as §1

solgum [17] = assay: Soil treatment test for upland field; assay type: in vivo; set-up: key: 0 = normal development, 5 = all killed; conditions: 500 g/ha, 3 weeks, glass house 25° C.
In short: as §1

sugar beat [18] = assay: Foliar spread test for upland field; assay type: in vivo; set-up: key: 0 = normal development, 5 = all killed (6 ranks vs. untreated); conditions: foliar spray, 500 ppm, 3 weeks, glass house 25° C.
In short: as §3

soybean [19] = assay: Foliar spread test for upland field; assay type: in vivo; set-up: key: 0 = normal development, 5 = all killed (6 ranks vs. untreated); conditions: foliar spray, 500 ppm, 3 weeks, glass house 25° C.
In short: as §3

solgum [20] = assay: Foliar spread test for upland field; assay type: in vivo; set-up: key: 0 = normal development, 5 = all killed (6 ranks vs. untreated); conditions: foliar spray, 500 ppm, 3 weeks, glass house 25° C.
In short: as §3

corn [21] = assay: Foliar spread test for upland field; assay type: in vivo; set-up: key: 0 = normal development, 5 = all killed (6 ranks vs. untreated); conditions: foliar spray, 500 ppm, 3 weeks, glass house 25° C.
In short: as §3

cotton = assay: Foliar spread test for upland field; assay type: in vivo; set-up: key: 0 = normal development, 5 = all killed (6 ranks vs. untreated); conditions: foliar spray, 500 ppm, 3 weeks, glass house 25° C.
In short: as §3

green foxtail [22] = assay: Foliar spread test for upland field; assay type: in vivo, Setaria viridis; set-up: key: 0 = normal development, 5 = all killed (6 ranks vs. untreated); conditions: foliar spray, 500 ppm, 3 weeks, glass house 25° C.
In short: as §3

velvetleaf [23] = assay: Soil treatment test for upland field; assay type: in vivo, Abutilon theophrasti; set-up: key: 0 = normal development, 5 = all killed; conditions: 500 g/ha, 3 weeks, glass house 25° C.
In short: as §1

Large crabgrass [24] = assay: Foliar spread test for upland field; assay type: in vivo, Digitaria adscendens; set-up: key: 0 = normal development, 5 = all killed (6 ranks vs. untreated); conditions: foliar spray, 500 ppm, 3 weeks, glass house 25° C.
In short: as §3

morning glory [25] = assay: Soil treatment test for upland field; assay type: in vivo, Ipomoea spps.; set-up: key: 0 = normal development, 5 = all killed; conditions: 500 g/ha, 3 weeks, glass house 25° C.
In short: as §1

velvetleaf [26] = assay: Foliar spread test for upland field; assay type: in vivo, Abutilon theophrasti; set-up: key: 0 = normal development, 5 = all killed (6 ranks vs. untreated); conditions: foliar spray, 500 ppm, 3 weeks, glass house 25° C.
In short: as §3

blackgrass [27] = assay: Foliar spread test for upland field; assay type: in vivo, Alopecurus aegualis; set-up: key: 0 = normal development, 5 = all killed (6 ranks vs. untreated); conditions: foliar spray, 500 ppm, 3 weeks, glass house 25° C.
In short: as §3

morning glory [28] = assay: Foliar spread test for upland field; assay type: in vivo, Ipomoea spps.; set-up: key: 0 = normal development, 5 = all killed (6 ranks vs. untreated); conditions: foliar spray, 500 ppm, 3 weeks, glass house 25° C.
In short: as §3

Cassia obtusifolia = assay: Foliar spread test for upland field; assay type: in vivo; set-up: key: 0 = normal development, 5 = all killed; conditions: foliar spray, 500 ppm, 3 weeks, glass house 25° C.
Experimental: as §7
(§8) Wagner pots, each having an area of 1/5000 are, were packed with volcanic ash soil and then each seed of corn, soybean, cotton, wheat, solgum, sugar beat, Large crabgrass, barnyardgrjass, green foxtail, blackgrass, annual bluegrass, common lambsquarters, livid amaranth, velvetleaf, morning glory, Xanthium pensylvanicum and Cassia obtusifolia was planted, covered with soil and grown in a glass house at an average temperature of 25° C. for about 2 weeks.
(§9) Each wettable powder of the desired compounds (I) shown in Tables 1 to 21, 24, 25, 28 and 29 prepared in accordance with Example 2 was diluted to 500 ppm with water containing a surfactant (0.5%) and then uniformly sprayed on the above respective plants.
(§10) After these plants were controlled in a glass house at an average temperature of 25° C. for 3 weeks, the herbicidal effects thereof were investigated.
(§11) The herbicidal effects were evaluated according to the evaluation method described in the above (1).

Xanthium pensylvanicum = assay: Foliar spread test for upland field; assay type: in vivo; set-up: key: 0 = normal development, 5 = all killed; conditions: foliar spray, 500 ppm, 3 weeks, glass house 25° C.
Experimental: as §7, §8, §9, §10, §11

arrowhead = assay: Herbicidal test for paddy field; assay type: in vivo, Sagittaria pygmaea; conditions: 500 g/ha, dropwise addition to paddy water at 1.5 leaf stage of barnyard grass; glass house 25° C., 3 weeks; rank 0-5 vs non-treated district
Experimental: as §4, §5, §6, §7

CCC(Oc1cc(C(F)(F)F)nn1C)c1nc2cc(C#N)c(Cl)cc2o1 (centres unmarked) [Compound 1-e-11]
4: Effects Barnyardgrass (barnyard grass [2]) | Effects Barnyardgrass (barnyard grass [12]) | Effects Monochoria (monochoria)
1: Effects Wheat (wheat [10])
5: Effects Green foxtail (green foxtail [1]) | Effects Common lambsquarters (common lambsquarters [3]) | Effects Livid amaranth (livid amaranth [4]) | Effects Livid amaranth (livid amaranth [5]) | Effects Common lambsquarters (common lambsquarters [6]) | Effects Large crabgrass (Large crabgrass [9]) | Effects Annual bluegrass (annual bluegrass [11])
0: Effects Corn (corn [7]) | Effects Wheat (wheat [8])

CCC(Sc1cc(C(F)(F)F)nn1C)c1nc2cc(Cl)ccc2o1 (centres unmarked) [Compound 1-e-12]
2: Effects Green foxtail (green foxtail [1])
0: Effects Soybean (soybean [13]) | Effects Corn (corn [7]) | Effects Wheat (wheat [8])
3: Effects Common lambsquarters (common lambsquarters [6]) | Effects Barnyardgrass (barnyard grass [12])
5: Effects Large crabgrass (Large crabgrass [9]) | Effects Monochoria (monochoria)
4: Effects Livid amaranth (livid amaranth [5]) | Effects Annual bluegrass (annual bluegrass [11])

CCCC(Oc1cc(C)nc(C#N)n1)c1nc2cc(C#N)ccc2o1 (centres unmarked) [Compound 1-e-70]
0: Effects Soybean (soybean [13]) | Effects Corn (corn [7]) | Effects Wheat (wheat [8])
3: Effects Common lambsquarters (common lambsquarters [6]) | Effects Monochoria (monochoria)
5: Effects Livid amaranth (livid amaranth [5])
2: Effects Large crabgrass (Large crabgrass [9])

CCC(=Cc1cccc(C(F)(F)F)c1)c1nc2cc(F)c(F)cc2o1 [I-c-111]
2: Effects Corn (corn [7])
4: Effects Bulrush (bulrush) | Effects Annual bluegrass (annual bluegrass [15]) | Effects Sugar beat (sugar beat [18]) | Effects Solgum (solgum [20]) | Effects Sotton (cotton) | Effects Green foxtail (green foxtail [22]) | Effects Large crabgrass (Large crabgrass [24]) | Effects Morning glory (morning glory [25]) | Effects Blackgrass (blackgrass [27])
1: Effects Cyperus serotinus Rottb. (Cyperus serotinus Rottb.)
3: Effects Barnyardgrass (barnyardgrjass) | Effects Solgum (solgum [17]) | Effects Corn (corn [21]) | Effects Wheat (wheat [10]) | Effects Velvetleaf (velvetleaf [26])
5: Effects Green foxtail (green foxtail [1]) | Effects Barnyardgrass (barnyard grass [2]) | Effects Common lambsquarters (common lambsquarters [3]) | Effects Livid amaranth (livid amaranth [4]) | Effects Livid amaranth (livid amaranth [5]) | Effects Blackgrass (blackgrass [14]) | Effects Common lambsquarters (common lambsquarters [6]) | Effects Sugar beat (sugar beat [16]) | Effects Soybean (soybean [13]) | Effects Wheat (wheat [8]) | Effects Large crabgrass (Large crabgrass [9]) | Effects Soybean (soybean [19]) | Effects Annual bluegrass (annual bluegrass [11]) | Effects Barnyardgrass (barnyard grass [12]) | Effects Velvetleaf (velvetleaf [23]) | Effects Morning glory (morning glory [28])

CCC(Oc1cc(C)nc(SC)n1)c1nc2cc(Cl)ccc2o1 (centres unmarked) [Compound 1-e-64]
4: Effects Monochoria (monochoria)

CCC(Oc1cc(C(F)(F)F)ncn1)c1nc2cc(Cl)ccc2o1 (centres unmarked) [Compound 1-e-66]
2: Effects Barnyardgrass (barnyard grass [2])
5: Effects Monochoria (monochoria)

N#Cc1ccc2oc(-c3cccc(Oc4cccc(C(F)(F)F)c4)n3)nc2c1 [I-a-18]
0: Effects Bulrush (bulrush) | Effects Cyperus serotinus Rottb. (Cyperus serotinus Rottb.) | Effects Arrowhead (arrowhead)
1: Effects Barnyardgrass (barnyardgrjass) | Effects Solgum (solgum [20]) | Effects Corn (corn [21]) | Effects Wheat (wheat [10]) | Effects Blackgrass (blackgrass [27])
4: Effects Common lambsquarters (common lambsquarters [3]) | Effects Common Cocklebur (Xanthium pensylvanicum) | Effects Sugar beat (sugar beat [18]) | Effects Sotton (cotton) | Effects Velvetleaf (velvetleaf [26])
5: Effects Livid amaranth (livid amaranth [4]) | Effects Sicklepod (Cassia obtusifolia) | Effects Green foxtail (green foxtail [22]) | Effects Morning glory (morning glory [28])
3: Effects Barnyardgrass (barnyard grass [2]) | Effects Soybean (soybean [19])
2: Effects Annual bluegrass (annual bluegrass [15]) | Effects Large crabgrass (Large crabgrass [24])
